# Target: T1, human PDE5 (Homo sapiens, UniProt O76074)
# T1 construct: from tissue; host or cells: platelets from fresh blood of human donors (lysate, 10,000 g supernatant)
# Experiment: Inhibition of the type 5 phosphodiesterase (PDE5) activity, modified SPA test with platelet lysate
# Type: biochemical
# Details: PDE5 from human platelet lysate, 0.5 μM cGMP
# Procedure, shortened: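 Human platelet lysate (10,000 g supernatant) as PDE5 source in SPA with 0.5 μM cGMP plus [3H]cGMP tracer, pH 7.4, 5 mM Mg2+, 1 μM motapizone and 10 nM PDE2 inhibitor; 10–20% conversion. 5 min preincubation, 15 min at 37 °C, stopped with SPA beads/IBMX. IC50 by non-linear regression.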
row,Structure (SMILES),IC50
1,"CCCCOc1ccc2c(c1-c1ncnc3c(C(=O)N[C@@H]4CCN(C(=O)CC)C4)c[nH]c13)OCO2 [Example 150, 4-(5-Butoxy-benzo[1,3]dioxol-4-yl)-5H-pyrrolo[3,2-d]pyrimidine-7-carboxylic acid ((R)-1-propionyl-pyrrolidin-3-yl)-amide]",0.389 nM
2,"COCC(=O)N1CC[C@@H](NC(=O)c2c[nH]c3c(-c4cc(OC)c(F)cc4OCC4CC4)ncnc23)C1 [Example 105, 4-(2-Cyclopropylmethoxy-4-fluoro-5-methoxy-phenyl)-5H-pyrrolo[3,2-d]pyrimidine-7-carboxylic acid [(R)-1-(2-methoxy-acetyl)-pyrrolidin-3-yl]amide]",0.372 nM
3,"O=C(N[C@H]1CCN(C(=O)C2CC2)C1)c1c[nH]c2c(-c3c(OCC4CC4)ccc4c3OCO4)ncnc12 [Example 20, 4-(5-Cyclopropylmethoxy-benzo[1,3]dioxol-4-yl)-5H-pyrrolo[3,2-d]pyrimidine-7-carboxylic acid [(S)-1-(1-cyclopropyl-methanoyl)-pyrrolidin-3-yl]amide]",0.537 nM
4,"C[C@H](O)C(=O)N1CCC(CNC(=O)c2c[nH]c3c(-c4c(OCC5CC5)ccc5c4OCO5)ncnc23)CC1 [Example 187, 4-(5-Cyclopropylmethoxy-benzo[1,3]dioxol-4-yl)-5H-pyrrolo[3,2-d]pyrimidine-7-carboxylic acid [1-((S)-2-hydroxy-propanoyl)piperidin-4-ylmethyl]-amide]",0.457 nM
5,"CC(=O)N1CCC(NC(=O)c2c[nH]c3c(-c4cc(C)ccc4OCC4CC4)ncnc23)CC1 [Example 123, 4-(2-Cyclopropylmethoxy-5-methyl-phenyl)-5H-pyrrolo[3,2-d]pyrimidine-7-carboxylic acid (1-acetyl-piperidin-4-yl)-amide]",1.82 nM
6,"COCC(=O)N[C@H]1CC[C@@H](NC(=O)c2c[nH]c3c(-c4ccc(F)cc4OCC4CC4)ncnc23)CC1 [Example 76, cis-4-(2-Cyclopropylmethoxy-4-fluoro-phenyl)-5H-pyrrolo[3,2-d]pyrimidine-7-carboxylic acid [4-(2-methoxy-acetylamino)-cyclohexyl]-amide]",2.4 nM
7,"CCOC(=O)N[C@H]1CC[C@@H](NC(=O)c2c[nH]c3c(-c4cc(OC)ccc4OCC4CC4)ncnc23)CC1 [Example 70, cis-(4-{[4-(2-Cyclopropylmethoxy-5-methoxy-phenyl)-5H-pyrrolo[3,2-d]pyrimidine-7-carbonyl]-amino}-cyclohexyl)-carbamic acid ethyl ester]",1.07 nM
8,"CCCCOc1ccc2c(c1-c1ncnc3c(C(=O)NC4CCN(C(=O)OCC)CC4)c[nH]c13)OCO2 [Example 145, 4-{[4-(5-Butoxy-benzo[1,3]dioxol-4-yl)-5H-pyrrolo[3,2-d]pyrimidine-7-carbonyl]-amino}-piperidine-1-carboxylic acid ethyl ester]",0.1 nM
9,"COc1ccc(-c2ncnc3c(C(=O)N[C@H]4CC[C@@H](NC(C)=O)CC4)c[nH]c23)c(OCC2CC2)c1 [Example 55, cis-4-(2-Cyclopropylmethoxy-4-methoxy-phenyl)-5H-pyrrolo[3,2-d]pyrimidine-7-carboxylic acid (4-acetylamino-cyclohexyl)-amide]",0.372 nM
10,"CCC(=O)N1CC[C@@H](NC(=O)c2c[nH]c3c(-c4cc(OC)c(F)cc4OCC4CC4)ncnc23)C1 [Example 104, 4-(2-Cyclopropylmethoxy-4-fluoro-5-methoxy-phenyl)-5H-pyrrolo[3,2-d]pyrimidine-7-carboxylic acid ((R)-1-propionyl-pyrrolidin-3-yl)-amide]",0.234 nM
11,"COCC(=O)N1CCOC(CNC(=O)c2c[nH]c3c(-c4c(OCC5CC5)ccc5c4OCO5)ncnc23)C1 (stereo not shown) [Example 37, 4-(5-Cyclopropylmethoxy-benzo[1,3]dioxol-4-yl)-5H-pyrrolo[3,2-d]pyrimidine-7-carboxylic acid [4-(2-methoxy-acetyl)morpholin-2-ylmethyl]-amide]",0.912 nM
12,"O=C(N[C@H]1CC[C@H](NC(=O)C2(O)CC2)CC1)c1c[nH]c2c(-c3ccc(F)cc3OCC3CC3)ncnc12 [Example 219, trans-4-(2-Cyclopropylmethoxy-4-fluoro-phenyl)-5H-pyrrolo[3,2-d]pyrimidine-7-carboxylic acid {4-[(1-hydroxy-cyclopropanecarbonyl)-amino]-cyclohexyl}-amide]",2 nM

# Further compounds by falling IC50, results first:
row,IC50,Structure (SMILES)
1,11 nM,"COCCOc1ccc2c(c1-c1ncnc3c(C(=O)N[C@H]4CC[C@@H](NC(=O)CO)CC4)c[nH]c13)OCO2 [Example 261, cis-4-[5-(2-Methoxy-ethoxy)-benzo[1,3]dioxol-4-yl]-5H-pyrrolo[3,2-d]pyrimidine-7-carboxylic acid [4-(2-hydroxy-acetylamino)-cyclohexyl]-amide]"
2,10.2 nM,"COCCOc1ccc2c(c1-c1ncnc3c(C(=O)N[C@H]4CC[C@@H](NC(=O)COC)CC4)c[nH]c13)OCO2 [Example 166, cis-4-[5-(2-Methoxy-ethoxy)-benzo[1,3]dioxol-4-yl]-5H-pyrrolo[3,2-d]pyrimidine-7-carboxylic acid [4-(2-methoxy-acetylamino)-cyclohexyl]-amide]"
3,8.51 nM,"COCCOc1cc(OC)ccc1-c1ncnc2c(C(=O)NC3CCN(C(=O)C4(O)CC4)CC3)c[nH]c12 [Example 259, 4-[4-Methoxy-2-(2-methoxy-ethoxy)-phenyl]-5H-pyrrolo[3,2-d]pyrimidine-7-carboxylic acid [1-(1-hydroxy-cyclopropanecarbonyl)-piperidin-4-yl]-amide]"
4,6.46 nM,"C[C@H](O)C(=O)N1CCC(NC(=O)c2c[nH]c3c(-c4cc(F)ccc4OCC4CC4)ncnc23)CC1 [Example 221, 4-(2-Cyclopropylmethoxy-5-fluoro-phenyl)-5H-pyrrolo[3,2-d]pyrimidine-7-carboxylic acid [1-((S)-2-hydroxy-propionyl)piperidin-4-yl]-amide]"
5,5.13 nM,"O=C(NC1CCN(C(=O)CO)CC1)c1c[nH]c2c(-c3cc(F)c(OC(F)F)cc3OCC3CC3)ncnc12 [Example 283, 4-[2-Cyclopropylmethoxy-4-(1,1-difluoro-methoxy)-5-fluoro-phenyl]-5H-pyrrolo[3,2-d]pyrimidine-7-carboxylic acid [1-(2-hydroxy-acetyl)piperidin-4-yl]-amide]"
6,4.79 nM,"CCOc1ccc2c(c1-c1ncnc3c(C(=O)N[C@@H]4CCN(C(=O)[C@H](C)O)C4)c[nH]c13)OCO2 [Example 250, 4-(5-Ethoxy-benzo[1,3]dioxol-4-yl)-5H-pyrrolo[3,2-d]pyrimidine-7-carboxylic acid [(R)-1-((S)-2-hydroxy-propionyl)-pyrrolidin-3-yl]amide]"
7,2.95 nM,"CC(=O)N1CCC(NC(=O)c2c[nH]c3c(-c4cc(F)ccc4OCC4CC4)ncnc23)CC1 [Example 84, 4-(2-Cyclopropylmethoxy-5-fluoro-phenyl)-5H-pyrrolo[3,2-d]pyrimidine-7-carboxylic acid (1-acetyl-piperidin-4-yl)-amide]"
8,2.14 nM,"CCOc1ccc2c(c1-c1ncnc3c(C(=O)NC4CCN(C(=O)[C@H](C)O)CC4)c[nH]c13)OCO2 [Example 249, 4-(5-Ethoxy-benzo[1,3]dioxol-4-yl)-5H-pyrrolo[3,2-d]pyrimidine-7-carboxylic acid [1-((S)-2-hydroxy-propionyl)-piperidin-4-yl]-amide]"
9,1.58 nM,"CCC(=O)N1CCC(NC(=O)c2c[nH]c3c(-c4cc(F)ccc4OCC4CC4)ncnc23)CC1 [Example 85, 4-(2-Cyclopropylmethoxy-5-fluoro-phenyl)-5H-pyrrolo[3,2-d]pyrimidine-7-carboxylic acid (1-propionyl-piperidin-4-yl)-amide]"
10,1.55 nM,"COCC(=O)N[C@H]1CC[C@H](NC(=O)c2c[nH]c3c(-c4ccc(F)cc4OCC4CC4)ncnc23)CC1 [Example 79, trans-4-(2-Cyclopropylmethoxy-4-fluoro-phenyl)-5H-pyrrolo[3,2-d]pyrimidine-7-carboxylic acid [4-(2-methoxy-acetylamino)-cyclohexyl]-amide]"
11,1.15 nM,"Cc1ccc(OCC2CC2)c(-c2ncnc3c(C(=O)N[C@H]4CC[C@H](NC(=O)C5(O)CC5)CC4)c[nH]c23)c1 [Example 245, trans-4-(2-Cyclopropylmethoxy-5-methyl-phenyl)-5H-pyrrolo[3,2-d]pyrimidine-7-carboxylic acid {4-[(1-hydroxy-cyclopropanecarbonyl)-amino]-cyclohexyl}-amide]"
12,1.1 nM,"CCC(=O)N1CCC(NC(=O)c2c[nH]c3c(-c4ccc(F)cc4OCC4CC4)ncnc23)CC1 [Example 82, 4-(2-Cyclopropylmethoxy-4-fluoro-phenyl)-5H-pyrrolo[3,2-d]pyrimidine-7-carboxylic acid (1-propionyl-piperidin-4-yl)-amide]"
13,0.933 nM,"CCCOc1ccc2c(c1-c1ncnc3c(C(=O)N[C@@H]4CCN(C(=O)CC)C4)c[nH]c13)OCO2 [Example 141, 4-(5-Propoxy-benzo[1,3]dioxol-4-yl)-5H-pyrrolo[3,2-d]pyrimidine-7-carboxylic acid ((R)-1-propionyl-pyrrolidin-3-yl)-amide]"
14,0.537 nM,"COCC(=O)N[C@H]1CC[C@H](NC(=O)c2c[nH]c3c(-c4cc(F)c(OC)cc4OCC4CC4)ncnc23)CC1 [Example 107, trans-4-(2-Cyclopropylmethoxy-5-fluoro-4-methoxy-phenyl)-5H-pyrrolo[3,2-d]pyrimidine-7-carboxylic acid [4-(2-methoxy-acetylamino)-cyclohexyl]-amide]"
15,0.49 nM,"CCC(=O)N1CCOC(CNC(=O)c2c[nH]c3c(-c4c(OCC5CC5)ccc5c4OCO5)ncnc23)C1 (stereo not shown) [Example 36, 4-(5-Cyclopropylmethoxy-benzo[1,3]dioxol-4-yl)-5H-pyrrolo[3,2-d]pyrimidine-7-carboxylic acid (4-propionyl-morpholin-2-ylmethyl)-amide]"
16,0.138 nM,"COCC(=O)N1CCC[C@@H](NC(=O)c2c[nH]c3c(-c4cc(F)c(OC)cc4OCC4CC4)ncnc23)C1 [Example 112, 4-(2-Cyclopropylmethoxy-5-fluoro-4-methoxy-phenyl)-5H-pyrrolo[3,2-d]pyrimidine-7-carboxylic acid [(R)-1-(2-methoxy-ethanoyl)-piperidin-3-yl]amide]"

# — patent US8445501B2, “Substituted 7-carboxamido-pyrrolo[3,2-d]pyrimidines” (Takeda GmbH, priority 2008, dated 2013)
